The values that follow are results of earlier work, collected in patent publication US20120141548A1, “NOVEL FORMULATION OF MELOXICAM” (FUNDACIONUNIVERSIDAD DEL NORTE, priority 2009, published 2012).

The term Tmax denotes the time at which the peak concentration occurs.

The conditions of series [1]: conventional meloxicam.

For the compound `Cc1cnc(NC(=O)C2=C(O)c3ccccc3S(=O)(=O)N2C)s1` [Meloxicam, meloxicam], the water solubility result was “poorly water soluble”. In series [1], the Tmax is 4 to 5 h.
